For test [1], the target named is T1, Ovine COX-1 (Ovis aries, UniProt P05979).
T1 construct: purchased Cayman Chemical Co. 60100
T1 sequence (P05979 25-600): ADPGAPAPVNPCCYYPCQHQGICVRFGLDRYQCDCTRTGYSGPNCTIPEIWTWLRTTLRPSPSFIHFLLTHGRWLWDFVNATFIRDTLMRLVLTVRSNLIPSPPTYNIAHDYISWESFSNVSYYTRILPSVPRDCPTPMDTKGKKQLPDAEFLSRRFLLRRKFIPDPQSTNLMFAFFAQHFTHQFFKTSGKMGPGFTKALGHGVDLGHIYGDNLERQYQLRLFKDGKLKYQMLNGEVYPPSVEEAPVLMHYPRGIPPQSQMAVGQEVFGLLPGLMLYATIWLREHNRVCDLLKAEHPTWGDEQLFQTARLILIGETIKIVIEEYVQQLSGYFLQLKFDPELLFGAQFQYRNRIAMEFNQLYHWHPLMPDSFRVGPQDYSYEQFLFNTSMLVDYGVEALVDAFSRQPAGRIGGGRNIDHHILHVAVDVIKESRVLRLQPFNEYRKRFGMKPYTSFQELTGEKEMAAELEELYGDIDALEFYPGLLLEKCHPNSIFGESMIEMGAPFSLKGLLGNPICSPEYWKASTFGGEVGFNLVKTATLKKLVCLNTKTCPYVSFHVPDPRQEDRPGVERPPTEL
Briefly: COX-1 oxygenation of arachidonic acid, oxygen electrode. Particulars: for COX-1 activity (% of control): 10 µM AA, initial activity 10-30 s, mean ± s.e.m., n = 3; for inhibition at 300 µM: 300 µM compound. The test is classed as biochemical. The method, then: (§1) The assay was performed according to Meade et al. with minor modifications using an oxygen electrode chamber with integral stirring (Oxygraph System, Hansatech Instruments, King’s Lynn, U.K.). The electrode was calibrated to ambient temperature and air pressure. Samples were prepared in 0.1 M Tris-HCl buffer pH 7.4 containing 1 µM haematin, 2 mM phenol, 5 mM EDTA, 10 µM substrate (AA or 2-AG) (final assay volume was 2 ml). After addition of test substance dissolved in DMSO (final assay concentration 1%) a baseline was established for 5 min before initiation of reaction by addition of 200 units COX-1 or COX-2. Change in oxygen consumption was monitored for approximately 5 min.
(§2) FAAH inhibition was calculated using log(inhibitor) vs. response with variable slope (four parameters) algorithm in the GraphPad Prism computer program (GraphPad Software Inc., San Diego, CA. USA). […] The two curves were compared by Akaike’s informative criteria and the best fit was chosen. Initial COX activities were calculated as the change in oxygen tension between 10 and 30 seconds after addition of enzyme.

Test [2] concerns the target T2, human recombinant COX-2 (Homo sapiens, UniProt P35354).
T2 construct: purchased Cayman Chemical Co. 60122
T2 sequence (P35354 18-604): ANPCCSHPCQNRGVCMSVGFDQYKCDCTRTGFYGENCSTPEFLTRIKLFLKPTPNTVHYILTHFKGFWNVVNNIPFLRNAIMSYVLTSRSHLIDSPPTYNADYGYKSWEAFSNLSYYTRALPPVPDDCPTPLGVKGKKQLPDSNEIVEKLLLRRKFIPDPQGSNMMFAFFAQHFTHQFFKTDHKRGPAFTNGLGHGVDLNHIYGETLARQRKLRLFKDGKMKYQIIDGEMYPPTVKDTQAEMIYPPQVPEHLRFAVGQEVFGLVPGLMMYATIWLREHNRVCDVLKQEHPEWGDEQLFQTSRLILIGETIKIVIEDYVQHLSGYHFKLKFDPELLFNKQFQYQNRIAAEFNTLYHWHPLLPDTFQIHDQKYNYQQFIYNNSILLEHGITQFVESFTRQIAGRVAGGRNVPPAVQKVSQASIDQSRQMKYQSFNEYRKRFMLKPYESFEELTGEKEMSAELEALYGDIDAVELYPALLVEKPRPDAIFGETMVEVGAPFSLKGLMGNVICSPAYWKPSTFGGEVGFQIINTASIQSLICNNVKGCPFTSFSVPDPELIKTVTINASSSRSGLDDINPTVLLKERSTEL
Briefly: COX-2 oxygenation of arachidonic acid, oxygen electrode. The test is classed as biochemical. The settings on record: for COX-2 activity (% of control): substrate AA 10 µM, initial activity 10-30 s, n = 3. The method, then:
as §1, §2

Setting [3] is: read-out: inhibition of COX-1-catalysed oxygenation of arachidonic acid.

A word on the inhibition: it is the share of the control response that was lost under treatment.

Take `CC(C(=O)O)c1ccc(CC(C)(C)O)cc1` (stereo not shown) [2′-OH-Ibuprofen, 2-[4-(2-hydroxy-2-methylpropyl)phenyl]propionic acid]: the “COX-1 activity (% of control)” value in test [1] (100 µM NSAID) is on record as 102±17 % of control; in test [1] (300 µM NSAID) it was 91±5 % of control; in test [1] (1000 µM NSAID), 95±3 % of control. Also, the inhibition at 300 µM in test [1] (setting [3]) came out at 9%. Besides, the “COX-2 activity (% of control)” value is 98±17 % of control in test [2] (100 µM NSAID) and 83±12 % of control in test [2] (300 µM NSAID).

Consider `CC(CO)Cc1ccc(C(C)C(=O)O)cc1` (stereo not shown) [3′-OH-Ibuprofen, 2-[4-(3-hydroxy-2-methylpropyl)phenyl]propionic acid], for which the figures for the “COX-1 activity (% of control)” value in test [1] (100 µM NSAID), in test [1] (300 µM NSAID) and in test [1] (1000 µM NSAID) were 81±16 % of control, 97±10 % of control and 68±15 % of control, respectively. Also, in test [1] (setting [3]), the inhibition at 300 µM is 3%. For the same compound, the figures for the “COX-2 activity (% of control)” value in test [2] (100 µM NSAID) and in test [2] (300 µM NSAID) were 103±21 % of control and 84±10 % of control, respectively.

For the compound `CC(C(=O)O)c1ccc(-c2ccc(O)cc2)c(F)c1` (stereo not shown) [4′-OH-Flurbiprofen], the figures for the “COX-1 activity (% of control)” value in test [1] (100 µM NSAID), in test [1] (300 µM NSAID) and in test [1] (1000 µM NSAID) were 97±31 % of control, 72±20 % of control and 6±6 % of control, respectively. In addition, in test [1] (100 µM compound, read-out: inhibition of COX-1-catalysed oxygenation of arachidonic acid), the inhibition at 100 µM was 3%. Besides, in test [1] (setting [3]), the inhibition at 300 µM came out at 28%. Further, the inhibition at 1000 µM in test [1] (1000 µM compound, read-out: inhibition of COX-1-catalysed oxygenation of arachidonic acid) was 94%. Besides, in test [2], the “inhibition of COX-2-catalysed oxygenation of arachidonic acid (result in words)” value is recorded as “failed to inhibit”. Besides, the “COX-2 activity (% of control)” value is 88±16 % of control in test [2] (30 µM NSAID), 106±16 % of control in test [2] (100 µM NSAID) and 106±9 % of control in test [2] (300 µM NSAID).

The record behind these values is publication PMC4111603 (PLoS ONE, 2014).
